The text below walks through data of PubChem BioAssay AID652124 (The Scripps Research Institute Molecular Screening Center, 2013).

Structures are written as SMILES. Activity calls are given as the source filed them. The rule behind the calls is not given here.

In this assay the target is Perilipin-5 (Homo sapiens) + 1-acylglycerol-3-phosphate O-acyltransferase ABHD5 (Homo sapiens) (UniProt Q00G26+Q8WTS1). Briefly: inhibition of ABHD5 association with perilipin-5 – biochemical, luminescence, dose response, round 2, late-stage follow-up (AID 652124). Particulars: biochemical ABHD5-PLIN5 interaction.
Sequence of Perilipin-5 (Homo sapiens) + 1-acylglycerol-3-phosphate O-acyltransferase ABHD5 (Homo sapiens) (Q00G26 whole entry, looked up): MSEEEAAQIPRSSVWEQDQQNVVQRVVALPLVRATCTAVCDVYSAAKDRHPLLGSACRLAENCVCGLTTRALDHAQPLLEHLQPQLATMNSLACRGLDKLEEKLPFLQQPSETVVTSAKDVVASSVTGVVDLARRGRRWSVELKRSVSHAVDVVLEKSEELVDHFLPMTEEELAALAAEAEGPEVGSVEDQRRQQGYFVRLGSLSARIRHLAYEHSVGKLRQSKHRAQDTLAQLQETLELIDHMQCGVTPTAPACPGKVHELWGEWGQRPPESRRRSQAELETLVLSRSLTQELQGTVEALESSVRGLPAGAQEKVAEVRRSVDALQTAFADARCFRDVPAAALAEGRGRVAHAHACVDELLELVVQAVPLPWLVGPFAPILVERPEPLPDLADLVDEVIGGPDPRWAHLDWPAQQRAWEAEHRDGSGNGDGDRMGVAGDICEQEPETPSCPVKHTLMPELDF
Sequence of Perilipin-5 (Homo sapiens) + 1-acylglycerol-3-phosphate O-acyltransferase ABHD5 (Homo sapiens) (Q8WTS1 whole entry, looked up): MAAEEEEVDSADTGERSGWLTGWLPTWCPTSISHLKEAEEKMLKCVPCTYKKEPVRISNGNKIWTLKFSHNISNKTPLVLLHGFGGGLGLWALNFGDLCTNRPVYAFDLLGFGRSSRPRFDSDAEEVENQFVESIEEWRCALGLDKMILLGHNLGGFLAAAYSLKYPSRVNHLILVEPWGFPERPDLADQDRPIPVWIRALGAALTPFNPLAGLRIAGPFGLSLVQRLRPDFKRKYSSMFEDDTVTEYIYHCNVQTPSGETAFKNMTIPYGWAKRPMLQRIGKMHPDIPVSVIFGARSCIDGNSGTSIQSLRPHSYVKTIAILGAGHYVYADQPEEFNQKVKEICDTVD
The IC50 is the concentration that gives 50% inhibition. Take `CCCCCCNC(=O)Nc1ccc2c(c1)Sc1ccccc1C(=O)N2C`: the IC50 is > 39.8 µM (inactive). The same measure for `NS(=O)(=O)c1ccc(NC(=O)c2nc(S(=O)(=O)Cc3ccccc3)ncc2Cl)cc1`: 3.8 µM; for `Cc1ccc(CS(=O)(=O)c2ncc(Cl)c(C(=O)Nc3nnc(C(C)C)s3)n2)cc1`: > 13.3 µM (inactive). Consider `CC(C)N1C(=O)c2ccccc2Oc2ccc(NC(=O)c3ccccc3)cc21`, for which the IC50 was > 39.8 µM (inactive). Turning to `CN(C)CCCN(C(=O)CCc1ccccc1)c1nc2ccc(Cl)cc2s1`, the IC50 result was “inactive”. Consider `O=C(c1nc(S(=O)(=O)Cc2ccccc2)ncc1Cl)N(Cc1ccccc1)Cc1ccco1`, for which the IC50 is 1.64 µM.

Regarding `Cc1ccc(CS(=O)(=O)c2ncc(Cl)c(C(=O)Nc3cccc4ccccc34)n2)cc1`, the IC50 is 2.19 µM. As to `CCS(=O)(=O)c1ncc(Cl)c(C(=O)Nc2ccc(S(N)(=O)=O)cc2)n1`, the IC50 was 6.48 µM. As for `Cc1ccc(CS(=O)(=O)c2ncc(Cl)c(C(=O)N3CCN(C)CC3)n2)cc1`, the IC50 was 5.91 µM. The result for `CCCS(=O)(=O)c1ccc(Cl)c(C(=O)Nc2ccc(C(=O)OCC)cc2)c1` reads 4.12 µM; that for `CS(=O)(=O)c1ncc(Cl)c(C(=O)Nc2ccc(C(F)(F)F)cc2)n1`, 1.45 µM. In the case of `CCCCCCCNC(=O)Nc1ccc2c(c1)Sc1ccccc1C(=O)N2C`, the IC50 result is “inactive”. The same measure for `Cc1ccc(CS(=O)(=O)c2ncc(Cl)c(C(=O)NCc3ccc4c(c3)OCO4)n2)cc1`: 3.15 µM; for `CCc1ccc2c(CC(=O)N3CCN(S(=O)(=O)c4ccc5c(c4)OCCO5)CC3)coc2c1`: 3.88 µM. `CN1C(=O)c2ccccc2Sc2ccc(NC(=O)NCCCc3ccccc3)cc21`: the IC50 is 1.72 µM.

`O=C(CCc1nc2ccccc2s1)N1CCN(S(=O)(=O)c2ccc3c(c2)OCCO3)CC1`: the IC50 is > 39.8 µM (inactive). The same measure for `CCS(=O)(=O)c1ncc(Cl)c(C(=O)Nc2ccc(C)cc2)n1`: 4.13 µM; for `CCCS(=O)(=O)c1ncc(Cl)c(C(=O)Nc2ccc(C(=O)OC)cc2)n1`: 4.44 µM; for `CCCNC(=O)Nc1ccc2c(c1)N(CC)C(=O)c1ccccc1S2`: “inactive”.

Take `CCCCCNC(=O)Nc1ccc2c(c1)Sc1ccccc1C(=O)N2C`: the IC50 was > 39.8 µM (inactive). In the case of `COc1ccc(OCC(=O)Nc2ccc3c(c2)N(C(C)C)C(=O)c2ccccc2O3)cc1`, the IC50 is > 39.8 µM (inactive). `CN1C(=O)c2ccccc2Sc2ccc(NC(=O)NCCc3ccccc3)cc21`: the IC50 is 3.7 µM. `CN(C)CCCN(C(=O)c1cc2ccccc2oc1=O)c1nc2ccc(Cl)cc2s1`: the IC50 entry is “inactive”. As for `O=C(CCc1c[nH]c2ccccc12)N1CCN(S(=O)(=O)c2ccc3c(c2)OCCO3)CC1`, the IC50 was > 39.8 µM (inactive). Take `CN1C(=O)c2ccccc2Sc2ccc(NC(=O)NCCc3cccs3)cc21`: the half-inhibitory concentration (IC50) was 4.98 µM. Regarding `O=C(CCn1cnc2ccccc21)N1CCN(S(=O)(=O)c2ccc3c(c2)OCCO3)CC1`, the IC50 is > 39.8 µM (inactive).

Take `CN1C(=O)c2ccccc2Oc2ccc(NC(=O)c3cc4ccccc4[nH]3)cc21`: the IC50 is > 39.8 µM (inactive). For `O=C(C1COc2ccccc2O1)N1CCN(S(=O)(=O)c2ccc3c(c2)OCCO3)CC1` (configuration not stated), the IC50 is > 39.8 µM (inactive). Turning to `CN(C(=O)c1nc(S(C)(=O)=O)ncc1Cl)c1ccccc1`, the IC50 is 3.56 µM. Consider `CN(C)CCCN(C(=O)C1CCCCC1)c1nc2cc(Cl)ccc2s1`, for which the IC50 was > 39.8 µM (inactive).

In the case of `CCCC(=O)Nc1ccc2c(c1)C(=O)N(C)c1ccccc1O2`, the IC50 was > 39.8 µM (inactive). Turning to `CN(C)CCCN(C(=O)Cc1ccc(F)cc1)c1nc2ccc(Cl)cc2s1`, the IC50 entry was “inactive”.

As to `CN1C(=O)c2ccccc2Oc2ccc(NC(=O)c3cccs3)cc21`, the IC50 is > 39.8 µM (inactive). With `Cc1ccc2cc(CC(=O)N3CCN(S(=O)(=O)c4ccc5c(c4)OCCO5)CC3)oc2c1`, the IC50 entry is “inactive”. The result for `O=C(Cc1ccc2c(c1)CCCC2)N1CCN(S(=O)(=O)c2ccc3c(c2)OCCO3)CC1` reads “inactive”; that for `CN(C)CCCN(C(=O)C1CCCCC1)c1nc2cc(Br)ccc2s1`, “inactive”; that for `CCCC(=O)N(CCCN1CCOCC1)c1nc2ccc(Cl)cc2s1`, > 39.8 µM (inactive). `Cc1ccc(CS(=O)(=O)c2ncc(Cl)c(C(=O)Nc3cccc(C(F)(F)F)c3)n2)cc1`: the IC50 is 1.76 µM. The same measure for `CCCC(=O)Nc1ccc2c(c1)C(=O)N(C)c1cc(C)ccc1O2`: > 39.8 µM (inactive); for `Cc1ccc(NC(=O)c2nc(S(C)(=O)=O)ncc2Cl)cc1`: 4.24 µM; for `CC(NC(=O)CN1CCN(S(=O)(=O)c2ccc3c(c2)OCCCO3)CC1)c1cc2ccccc2o1` (configuration not stated): > 39.8 µM (inactive). On to `COc1ccc(CCNC(=O)c2nc(S(=O)(=O)Cc3ccc(F)cc3)ncc2Cl)cc1OC`, for which the IC50 was 2.95 µM.

On to `O=C(Cc1cccc(F)c1)N1CCN(S(=O)(=O)c2ccc3c(c2)OCCO3)CC1`, for which the IC50 is > 39.8 µM (inactive). For `COc1ccc(CC(=O)N2CCN(S(=O)(=O)c3ccc4c(c3)OCCCO4)CC2)cc1`, the IC50 is > 39.8 µM (inactive). The result for `Cc1ccc2c(CC(=O)N3CCN(S(=O)(=O)c4ccc5c(c4)OCCCO5)CC3)coc2c1C` reads 4.72 µM. As to `O=C(Nc1ccc2ccccc2c1)c1nc(S(=O)(=O)Cc2ccccc2)ncc1Cl`, the IC50 was 2.17 µM. As for `COc1ccc(CC(=O)N2CCCN(S(=O)(=O)c3ccc(C)cc3)CC2)cc1OC`, the IC50 is > 39.8 µM (inactive).
